The values that follow come from ChEMBL document CHEMBL3425485 (J Med Chem, 2015).

The source made the active and inactive calls. The rule behind the calls is not given here.

Data set [1] is described as follows: Total plasma clearance in iv dosed rat. In kind it is ADME, organism-based.
The next data set has as its target T1, Cytochrome P450 1A1 (Homo sapiens, UniProt P04798).
T1 sequence (P04798 whole entry): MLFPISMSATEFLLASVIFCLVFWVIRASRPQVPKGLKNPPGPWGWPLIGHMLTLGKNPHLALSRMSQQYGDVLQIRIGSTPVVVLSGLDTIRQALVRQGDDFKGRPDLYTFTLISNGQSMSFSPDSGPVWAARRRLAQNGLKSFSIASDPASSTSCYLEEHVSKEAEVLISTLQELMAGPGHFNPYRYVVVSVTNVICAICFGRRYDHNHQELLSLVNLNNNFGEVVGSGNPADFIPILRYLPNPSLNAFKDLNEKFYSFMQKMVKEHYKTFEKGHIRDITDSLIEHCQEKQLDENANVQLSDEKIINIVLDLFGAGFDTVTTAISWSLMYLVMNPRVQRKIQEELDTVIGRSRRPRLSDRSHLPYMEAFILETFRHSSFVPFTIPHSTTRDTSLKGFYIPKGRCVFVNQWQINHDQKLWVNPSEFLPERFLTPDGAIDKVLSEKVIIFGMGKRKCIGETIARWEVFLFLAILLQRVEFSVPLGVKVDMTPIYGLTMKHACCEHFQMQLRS
Nature of the data set: Drug metabolism assessed as recombinant CYP1A1 (unknown origin)-mediated compound intrinsic clearance measured per mg of protein. It is filed as ADME. The settings on record: recombinant enzyme.

The species named for a further data set is Rattus norvegicus. In words: Terminal half life in rat. In kind it is ADME, organism-based. The settings on record: in vivo.
Data set [2] concerns HeLa. Nature of the data set: Cytotoxicity against human HeLa cells transfected with BRCA1 shRNA assessed as reduction of cell viability after 5 to 7 days by CellTiter-Blue assay. It is filed as functional. (Resazurin is reduced to fluorescent resorufin, in cell work by metabolically active cells.)
The nature of data set [3]: Intrinsic clearance in human liver microsomes measured per mg of protein. In general terms: Liver microsomes are vesicles of endoplasmic reticulum, rich in cytochrome P450 enzymes.
The nature of data set [4]: Volume of distribution at steady state in rat. Particulars: in vivo.
The nature of data set [5]: Oral bioavailability in dog. The settings on record: in vivo.
The nature of data set [6]: Volume of distribution at steady state in dog. The settings on record: in vivo.
Data set [7] in a line: Terminal half life in dog. The settings on record: in vivo.
Data set [8] can be described thus: Drug metabolism in iv dosed bile cannulated dog assessed as parent compound recovery.
Data set [9] in a line: Drug metabolism in iv dosed bile cannulated rat assessed as parent compound recovery.
A short description of data set [10]: Cytotoxicity against human SUM1315MO2 cells carrying BRCA1 mutant assessed as inhibition of cell proliferation after 12 days by CellTiter-Blue assay. The settings on record: SUM1315MO2, 288 h.
The nature of data set [11]: Plasma concentration in CD-1 mouse at 50 mg/kg, po after 24 hrs.
Data set [12] in a line: Fraction unbound in mouse plasma.
Data set [13] can be described thus: Fraction unbound in human plasma.
Data set [14] in a line: Antitumor activity against BRCA2-deficient human Capan1 cells xenografted in immunocompromised mouse assessed as tumor growth inhibition at 80 mg/kg, po qd for 2 to 4 weeks. Particulars: CAPAN-1, po, read-out: TGI.
Data set [15] concerns Plasma. In words: Plasma trough concentration in human at 300 mg/day. The settings on record: read-out: Cmin.
The test system of data set [16] is Plasma. In words: Plasma trough concentration in human at 40 mg/day. The settings on record: read-out: Cmin.
Data set [17] deals with T2, PARP 1, 2 and 3 (Homo sapiens) (UniProt P09874+Q9Y6F1+Q9UGN5). The settings on record: HeLa.
Description: Inhibition of PARP in human HeLa cells assessed as inhibition of hydrogen peroxide-induced PARylation by cell-based assay
Data set [18] deals with T2, PARP 1, 2 and 3 (Homo sapiens). Particulars: A2780.
Description: Inhibition of PARP in human A2780 cells assessed as inhibition of hydrogen peroxide-induced PARylation by cell-based assay
Data set [19] has the same target. Particulars: CAPAN-1.
Description: Inhibition of PARP in BRCA2-deficient human CAPAN-1 cells assessed as inhibition of hydrogen peroxide-induced PARylation by cell-based assay
Data set [20] has as its system MDA-MB-436. Particulars: Homo sapiens, 50 mg/kg.
Description: Antitumor activity against human MDA-MB-436 cells harboring BRCA1 mutant xenografted in immunocompromised mouse assessed as tumor growth inhibition at 50 mg/kg, po administered daily
The subject of data set [21] is MDA-MB-436. Particulars: Homo sapiens, 80 mg/kg.
Description: Antitumor activity against human MDA-MB-436 cells harboring BRCA1 mutant xenografted in immunocompromised mouse assessed as tumor growth inhibition at 80 mg/kg, po qd for 1 to 2 weeks
The target in data set [22] is T2, PARP 1, 2 and 3 (Homo sapiens). Particulars: MDA-MB-436, 50 to 100 mg/kg.
Description: Inhibition of PARP activity in tumor of immunocompromised mouse xenografted with human MDA-MB-436 cells harboring BRCA1 mutant assessed as incorporation of [3H]NAD in PAR chains in response to nicked DNA at 50 to 100 mg/kg, po measured after 24 hrs
For data set [23] the target is unchanged. Particulars: CAPAN-1, 50 to 100 mg/kg.
Description: Inhibition of PARP activity in tumor of immunocompromised mouse xenografted with BRCA2-deficient human Capan1 cells assessed as incorporation of [3H]NAD in PAR chains in response to nicked DNA at 50 to 100 mg/kg, po measured after 24 hrs
Data set [24] relates to HeLa. In words: cells. Particulars: Homo sapiens.
Description: Cytotoxicity against wild type human HeLa cells assessed as inhibition of cell proliferation after 5 to 7 days by CellTiter-Blue assay
In data set [25] the test system is A549. Nature of the data set: cells. Particulars: Homo sapiens.
Description: Cytotoxicity against wild type human A549 cells assessed as inhibition of cell proliferation after 5 to 7 days by CellTiter-Blue assay
In data set [26] the test system is A549. Nature of the data set: cells. Particulars: Homo sapiens. This is another data set of the same source.
Description: Cytotoxicity against human A549 cells transfected with BRCA2 shRNA assessed as inhibition of cell proliferation after 5 to 7 days by CellTiter-Blue assay
Data set [27] in a line: cells. The settings on record: Homo sapiens, UWB1289.
Description: Cytotoxicity against human UWB1.289 cells carrying BRCA1 mutant assessed as inhibition of cell proliferation after 5 to 7 days by CellTiter-Blue assay
Data set [28] in a line: cells. Particulars: Homo sapiens, SUM149PT.
Description: Cytotoxicity against human SUM149PT cells carrying BRCA1 mutant assessed as inhibition of cell proliferation after 5 to 7 days by CellTiter-Blue assay
In another data set the test system is DoTc2-4510. In words: cells. The settings on record: Homo sapiens.
Another data set can be described thus: in vivo. The settings on record: dog, plasma.
Data set [29] can be described thus: in vitro. The settings on record: human, UWB1.289 cells expressing BRCA1.
Description: Cytotoxicity against human UWB1.289 cells expressing BRCA1 assessed as inhibition of cell proliferation after 5 to 7 days by CellTiter-Blue assay
The nature of data set [30]: in vitro. The settings on record: human, BT20 cells.
Description: Cytotoxicity against human BT20 cells assessed as inhibition of cell proliferation after 5 to 7 days by CellTiter-Blue assay
Data set [31] has as its target Poly [ADP-ribose] polymerase 1 (Homo sapiens, UniProt P09874).
Description: Inhibition of PARP1 (unknown origin)
Data set [32] is described as follows: Plasma clearance in rat. In kind it is ADME.
In data set [33] the test system is HeLa. In words: Selectivity for BRCA1 shRNA-transfected human HeLa cells over wild type human HeLa cells.
Data set [34] is described as follows: Drug metabolism in rat lung microsomes assessed as compound turnover. It is filed as ADME.
Data set [35] can be described thus: Drug metabolism in rat kidney microsomes assessed as compound turnover. It is filed as ADME.

As usually defined, the clearance is the volume of plasma or blood freed of the substance per unit of time. As usually defined, the CC50 is the concentration at which the toxic effect on the cells reaches its halfway point. Usually microsomal CLint stands for a measure of how fast metabolising enzymes remove a compound, apart from limits set by blood flow. High values mean rapid turnover, low ones slow turnover. By Vd is commonly meant a proportionality between amount in the body and measured concentration, not a real space. A higher Vd goes with wide distribution into tissue. What is called bioavailability is the share of a dose that reaches the circulation, judged against a reference dose that is usually intravenous. Lower therefore signals little systemic uptake. Broadly, the half-life is how long it takes for the measured level to halve. For orientation: fraction unbound means the share of the substance not bound to proteins or other matrix. A higher fraction unbound goes with weak binding. What is called IC90 is the concentration needed for an effect of 90%. High values mean a need for much substance, low ones an effect from little substance. A word on the inhibition: it is the percentage by which the read-out fell short of the control. As a reminder, the IC50 is the concentration needed to halve the response being measured.

Chain of Poly [ADP-ribose] polymerase 1 (P09874 whole entry): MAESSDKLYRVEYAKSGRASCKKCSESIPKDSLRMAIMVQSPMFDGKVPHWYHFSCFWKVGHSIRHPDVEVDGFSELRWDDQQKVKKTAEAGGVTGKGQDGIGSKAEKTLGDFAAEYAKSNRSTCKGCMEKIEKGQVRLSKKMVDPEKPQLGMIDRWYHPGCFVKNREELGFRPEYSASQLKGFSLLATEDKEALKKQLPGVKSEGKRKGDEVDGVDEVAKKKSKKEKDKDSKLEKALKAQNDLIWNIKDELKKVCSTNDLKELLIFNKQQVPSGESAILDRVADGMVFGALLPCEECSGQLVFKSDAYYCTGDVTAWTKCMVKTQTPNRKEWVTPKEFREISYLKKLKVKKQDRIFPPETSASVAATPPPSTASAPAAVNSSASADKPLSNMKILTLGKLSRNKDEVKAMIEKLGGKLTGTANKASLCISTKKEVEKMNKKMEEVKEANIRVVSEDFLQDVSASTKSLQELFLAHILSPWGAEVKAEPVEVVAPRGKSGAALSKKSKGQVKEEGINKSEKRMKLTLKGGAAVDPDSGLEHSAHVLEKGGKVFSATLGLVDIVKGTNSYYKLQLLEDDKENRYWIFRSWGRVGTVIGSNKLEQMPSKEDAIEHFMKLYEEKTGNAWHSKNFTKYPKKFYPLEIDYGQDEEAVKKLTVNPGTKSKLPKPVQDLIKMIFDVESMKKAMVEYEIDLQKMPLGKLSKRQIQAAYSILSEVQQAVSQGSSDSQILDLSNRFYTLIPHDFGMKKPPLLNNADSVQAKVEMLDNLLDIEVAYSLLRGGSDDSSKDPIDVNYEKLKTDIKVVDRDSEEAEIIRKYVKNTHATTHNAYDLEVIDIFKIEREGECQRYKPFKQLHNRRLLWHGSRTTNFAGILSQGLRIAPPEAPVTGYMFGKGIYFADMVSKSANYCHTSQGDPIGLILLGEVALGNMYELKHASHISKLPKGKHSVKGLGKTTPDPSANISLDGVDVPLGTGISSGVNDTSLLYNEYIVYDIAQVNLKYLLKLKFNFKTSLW
Description for DoTc2-4510: Cytotoxicity against human DoTc2-4510 cells carrying BRCA2 mutant assessed as inhibition of cell proliferation after 5 to 7 days by CellTiter-Blue assay

For `CNC(C)(C)c1ccc(-n2cc3cccc(C(N)=O)c3n2)cc1`, the clearance in data set [1] was determined as 30 mL/min/kg. Moreover, the CL on Cytochrome P450 1A1 was determined as 0.4 µL/min.

Regarding `NC(=O)c1cccc2cn(-c3ccc(C4CCCN4)cc3)nc12` (stereo not drawn), the CL at Cytochrome P450 1A1 amounted to 22 µL/min.

In the case of `NC(=O)c1cccc2cn(-c3ccc4c(c3)CCNC4)nc12`, the clearance in [1] is 30 mL/min/kg. The CL on Cytochrome P450 1A1 stood at 0.7 µL/min.

`NC(=O)c1cccc2cn(-c3ccc([C@@H]4CCCNC4)cc3)nc12` [NIRAPARIB]: the “beta t1/2” value in the data set filed under Rattus norvegicus was found to be 3.4 h. The CC50 with HeLa [2] worked out at 34 nM; in [10], 20 nM; in the data set on HeLa [24] it was 852 nM; in the data set with A549 [25], 1760 nM; with A549 [26], 11 nM; in the data set “cells [27]” it was 56 nM. In addition, the CC50 in “cells [28]” came to 24 nM; in the data set with DoTc2-4510, 23 nM; in “in vitro [29]”, 975 nM; in “in vitro [30]”, 2200 nM. For the same molecule, the CL on Cytochrome P450 1A1 is 16 µL/min. In [3], the microsomal CLint amounted to 3 µL/min/mg. Besides, the Vd in data set [4] was determined as 6.9 L/kg; in data set [6], 12.3 L/kg. In data set [5], this molecule had a bioavailability of 57%. Also, the half-life in [7] is 5.7 h. The dose excreted in data set [8] is less than 5%; in data set [9], 45%. The molecule also gave a concentration at 24 h in data set [11] of 100 nM. For the same molecule, the values for the fraction unbound in [12] and in [13] were 0.26 and 0.16, respectively. In addition, the inhibition in vivo at 80 mg/kg in data set [14] is 60%. Also, the concentration in the data set on Plasma [15] is more than 2000 nM; with Plasma [16], 288 nM. The IC90 was determined as 46 nM in [17], 52 nM in data set [18] and 50 nM in data set [19]. Also, the inhibition entry in the data set on MDA-MB-436 [20] was “Active”. The TGI entry in the data set with MDA-MB-436 [21] is “Active”. Moreover, the inhibition in data set [22] and in data set [23] was more than 90% each time. In “in vivo”, this molecule showed a clearance of 31 mL/min/kg.

As for `CNCc1ccc(-n2cc3cccc(C(N)=O)c3n2)cc1`, the CL on Cytochrome P450 1A1 is 6 µL/min.

Molecule `O=C(O)c1cccc2cn(-c3ccc([C@@H]4CCCNC4)cc3)nc12` had an IC50 in data set [31] of 3.8 nM.

Take `NC(=O)c1cccc2cn(-c3ccc([C@H]4CCCNC4)cc3)nc12`: at Cytochrome P450 1A1, the CL is 7 µL/min. The molecule further had a microsomal CLint in data set [3] of 4 µL/min/mg.

`NC(=O)c1cccc2cn(-c3ccccc3)nc12`: in data set [32], the clearance was 30 mL/min/kg.

Regarding `CN(C)Cc1ccc(-n2cc3cccc(C(N)=O)c3n2)cc1`, the Selectivity ratio in the data set on HeLa [33] is on record as more than 10. In addition, the Drug metabolism entry in data set [34] and in [35] was “metabolite_detected” each time. In addition, at Cytochrome P450 1A1, the CL is 8.7 µL/min.

On to `NC(=O)c1cccc2cn(-c3ccc(C4CCCNC4)cc3)nc12` (stereo not drawn), for which the CL on Cytochrome P450 1A1 amounted to 11 µL/min.
